Molecules are shown by their SMILES.

In patent US20230129359A1, “MUSCARINIC RECEPTOR 4 ANTAGONISTS AND METHODS OF USE” (Neurocrine Biosciences, Inc., priority 2020, published 2023) one finds Ki data, which are given here for 25 compounds.

The assay addresses T1, human M4 receptor (Homo sapiens, UniProt P08173).
T1 construct: expressed in transfected cells; host or cells: CHO cells
T1 sequence (P08173 1-479): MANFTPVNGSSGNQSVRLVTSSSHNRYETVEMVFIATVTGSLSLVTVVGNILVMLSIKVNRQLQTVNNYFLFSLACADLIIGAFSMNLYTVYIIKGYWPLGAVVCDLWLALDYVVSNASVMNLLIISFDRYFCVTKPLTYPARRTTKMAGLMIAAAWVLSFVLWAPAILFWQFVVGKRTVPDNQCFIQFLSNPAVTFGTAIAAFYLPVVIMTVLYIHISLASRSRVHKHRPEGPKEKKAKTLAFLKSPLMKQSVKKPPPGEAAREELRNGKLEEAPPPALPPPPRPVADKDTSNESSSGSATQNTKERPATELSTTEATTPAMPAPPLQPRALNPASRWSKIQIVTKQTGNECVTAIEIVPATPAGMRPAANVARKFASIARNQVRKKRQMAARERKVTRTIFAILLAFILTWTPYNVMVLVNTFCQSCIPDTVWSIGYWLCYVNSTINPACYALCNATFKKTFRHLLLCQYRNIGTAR
Kind of assay: Radioligand ([3H]N-methylscopolamine) binding assay, membranes from CHO cells expressing human M4 receptor. Conditions: Ki against human M4 receptor; membranes from CHO cells; tritiated N-methylscopolamine 1.5 nM; read-out: K. An outline of the steps:
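Competition binding used CHO-cell membranes expressing human M4 with 1.5 nM [3H]N-methylscopolamine and twelve compound concentrations ([…]). Incubation was 90 minutes at 37 °C in 50 mM HEPES, 100 mM NaCl, 5 mM MgCl2, 1 mM EDTA, pH 7.4. Bound ligand was collected by filtration onto PEI-treated glass fibre for Ki.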
Take `C[C@@H]1CN(c2ncc(C(F)(F)F)cn2)C[C@H](C)N1C(=O)NC1CC2(C1)CN(Cc1cccnc1)C2` [Compound 303, (2R,6S)-2,6-dimethyl-N-[2-(pyridin-3-ylmethyl)-2-azaspiro[3.3]heptan-6-yl]-4-[5-(trifluoromethyl)pyrimidin-2-yl]piperazine-1-carboxamide]: the Ki lay within 10 to 100 nM. Next, `O=C(OC1CC2(C1)CN(Cc1ccccc1)C2)N1C2COCC1CN(c1ncc(C(F)(F)F)cn1)C2` [Compound 167, 2-benzyl-2-azaspiro[3.3]heptan-6-yl 7-[5-(trifluoromethyl)pyrimidin-2-yl]-3-oxa-7,9-diazabicyclo[3.3.1]nonane-9-carboxylate]: 10 to 100 nM. For the compound `C[C@@H]1CN(c2ccc(C(F)(F)F)cc2)CCN1C(=O)OC1CC2(C1)CN(Cc1ccccc1)C2` [Compound 528, 2-benzyl-2-azaspiro[3.3]heptan-6-yl (2R)-2-methyl-4-[4-(trifluoromethyl)phenyl]pipera-zine-1-carboxylate], the Ki lay in the range of 10 to 100 nM. With `C[C@@H]1CN(c2cnc3ccccc3n2)CCN1C(=O)NC1CC2(C1)CN(Cc1ccccc1)C2` [Compound 224, (2R)-N-{2-benzyl-2-azaspiro[3.3]heptan-6-yl}-2-methyl-4-(quinoxalin-2-yl)piperazine-1-carboxamide] the figure was 10 to 100 nM; with `C[C@@H]1CN(c2ncc(C(F)(F)F)cn2)[C@@H](C)CN1C(=O)OC1(C(F)F)CC2(CN(Cc3ccccc3)C2)C1` [Compound 346, 2-benzyl-6-(difluoromethyl)-2-azaspiro[3.3]heptan-6-yl (2R,5S)-2,5-dimethyl-4-[5-(trifluoromethyl)pyrimidin-2-yl]piperazine-1-carboxylate], 10 to 100 nM; with `C[C@@H]1CN(c2cnc3cc(F)ccc3n2)[C@@H](C)CN1C(=O)OC1CC2(C1)CN(Cc1ccc(F)cc1)C2` [Compound 397, 2-[(4-fluorophenyl)methyl]-2-azaspiro[3.3]heptan-6-yl (2R,5S)-4-(6-fluoroquinoxalin-2-yl)-2,5-dimethylpiperazin-1-carboxylate], 10 to 100 nM.

For the compound `C[C@@H]1CN(c2ncc3ccccc3n2)C[C@H](C)N1C(=O)OC1CC2(C1)CN(Cc1ccc(F)cc1)C2` [Compound 392, 2-[(4-fluorophenyl)methyl]-2-azaspiro[3.3]heptan-6-yl (2R,6S)-2,6-dimethyl-4-(quinazolin-2-yl)piperazine-1-carboxylate], the Ki was less than 10 nM.

`C[C@@H]1CN(c2ncc(OC(F)F)cn2)C[C@H](C)N1C(=O)NC1CC2(C1)CN(Cc1ccccc1)C2` [Compound 247, (2R,6S)-N-{2-benzyl-2-azaspiro[3.3]heptan-6-yl}-4-[5-(difluoromethoxy)pyrimidin-2-yl]-2,6-dimethylpiperazine-1-carboxamide]: the Ki fell in the range of 10 to 100 nM. Next, `[2H]c1c([2H])c([2H])c(C([2H])N2CC3(CC(NC(=O)N4[C@H](C)CN(c5ncc(C(F)(F)F)cn5)C[C@@H]4C)C3)C2)c([2H])c1[2H]` (stereo partly drawn) [Compound 274, (2R,6S)-2,6-dimethyl-N-{2-[(^2H5)phenyl(^2H1)methyl]-2-azaspiro[3.3]heptan-6-yl}-4-[5-(trifluoromethyl)pyrimidin-2-yl]piperazine-1-carboxamide]: less than 10 nM; `Cc1ccsc1CN1CC2(CC(NC(=O)N3[C@H](C)CN(c4ncc(C(F)(F)F)cn4)C[C@@H]3C)C2)C1` [Compound 338, (2R,6S)-2,6-dimethyl-N-{2-[(3-methylthiophen-2-yl)methyl]-2-azaspiro[3.3]heptan-6-yl}-4-[5-(trifluoromethyl)pyrimidin-2-yl]piperazine-1-carboxamide]: less than 10 nM. Consider `C[C@@H]1CN(c2cnc3ccccc3n2)C[C@H](C)N1C(=O)OC1CC2(C1)CN(Cc1ccc(F)cc1)C2` [Compound 391, 2-[(4-fluorophenyl)methyl]-2-azaspiro[3.3]heptan-6-yl (2R,6S)-2,6-dimethyl-4-(quinoxalin-2-yl)piperazine-1-carboxylate], for which the Ki is 10 to 100 nM.

Take `C[C@@H]1CN(c2ncc(C(F)(F)F)cn2)C[C@H](C)N1C(=O)NC1CC2(C1)CN(CCCCc1ccccc1)C2` [Compound 312, (2R,6S)-2,6-dimethyl-N-[2-(4-phenylbutyl)-2-azaspiro[3.3]heptan-6-yl]-4-[5-(trifluoromethyl)pyrimidin-2-yl]piperazine-1-carboxamide]: the Ki lay within 100 to 1000 nM. Next, `[2H]c1c([2H])c([2H])c(C([2H])([2H])N2CC3(CC(OC(=O)N4C[C@H](C)N(c5cnc(C(F)(F)F)cn5)C[C@H]4C)C3)C2)c([2H])c1[2H]` [Compound 361, 2-[(^2H5)phenyl(^2H2)methyl]-2-azaspiro[3.3]heptan-6-yl (2R,5S)-2,5-dimethyl-4-[5-(trifluoromethyl)pyrazin-2-yl]piperazine-1-carboxylate]: 10 to 100 nM. Next, `C[C@@H]1CN(c2nc3cc(C(F)(F)F)cnc3s2)C[C@H](C)N1C(=O)OC1CC2(C1)CN(Cc1ccccc1)C2` [Compound 365, 2-benzyl-2-azaspiro[3.3]heptan-6-yl (2R,6S)-2,6-dimethyl-4-[6-(trifluoromethyl)-[1,3]thiazolo[5,4-b]pyridin-2-yl]piperazine-1-carboxylate]: less than 10 nM; `O=C(OC1CC2(C1)CN(Cc1ccccc1)C2)N1C2COCC1CN(c1nc3ccc(C(F)(F)F)cc3s1)C2` [Compound 437, 2-benzyl-2-azaspiro[3.3]heptan-6-yl 7-[6-(trifluoromethyl)-1,3-benzothiazol-2-yl]-3-oxa-7,9-diazabicyclo[3.3.1]nonane-9-carboxylate]: 10 to 100 nM; `Cc1ccc(CN2CC3(CC(NC(=O)N4[C@H](C)CN(c5ncc(C(F)(F)F)cn5)C[C@@H]4C)C3)C2)s1` [Compound 339, (2R,6S)-2,6-dimethyl-N-{2-[(5-methylthiophen-2-yl)methyl]-2-azaspiro[3.3]heptan-6-yl}-4-[5-(trifluoromethyl)pyrimidin-2-yl]piperazine-1-carboxamide]: less than 10 nM. Turning to `C[C@@H]1CN(c2ncc(C#N)cn2)C[C@H](C)N1C(=O)OC1CC2(C1)CN(Cc1ccc(Cl)cc1)C2` [Compound 475, 2-[(4-chlorophenyl)methyl]-2-azaspiro[3.3]heptan-6-yl (2R,6S)-4-(5-cyanopyrimidin-2-yl)-2,6-dimethylpiperazine-1-carboxylate], the Ki fell in the range of 10 to 100 nM.

As to `C[C@@H]1CN(c2cnc(C(F)(F)F)cn2)C[C@@H](C)N1C(=O)NCC1CC2(C1)CN(Cc1ccccc1)C2` [Compound 63, (2R,6R)-N-({2-benzyl-2-azaspiro[3.3]heptan-6-yl}methyl)-2,6-dimethyl-4-[5-(trifluoromethyl)pyrazin-2-yl]piperazine-1-carboxamide], the Ki lay within 100 to 1000 nM. With `C[C@@H]1CN(c2ncc(C(F)(F)F)cn2)C[C@@H](C)N1C(=O)OC1CC2(C1)CN(CCC(C)(C)C)C2` [Compound 145, 2-(3,3-dimethylbutyl)-2-azaspiro[3.3]heptan-6-yl (2R,6R)-2,6-dimethyl-4-[5-(trifluoromethyl)pyrimidin-2-yl]piperazine-1-carboxylate] the figure was 100 to 1000 nM; with `C[C@@H]1CN(c2ncc(C(F)(F)F)cn2)[C@@H](C)CN1C(=O)OC1CC2(C1)CN(Cc1ccccc1)C2` [Compound 136, 2-Benzyl-2-azaspiro[3.3]heptan-6-yl (2R,5S)-2,5-dimethyl-4-[5-(trifluoromethyl)pyrimidin-2-yl]piperazine-1-carboxylate], less than 10 nM; with `C[C@@H]1CN(c2ncc(C(F)(F)F)cn2)CCN1C(=O)NC1CC2(C1)CN(Cc1ccc(Cl)cc1)C2` [Compound 257, (2R)-N-{2-[(4-chlorophenyl)methyl]-2-azaspiro[3.3]heptan-6-yl}-2-methyl-4-[5-(trifluoromethyl)pyrimidin-2-yl]piperazine-1-carboxamide], 100 to 1000 nM.

As to `C[C@@H]1CN(c2nc3ncc(C(F)(F)F)cc3s2)C[C@@H](C)N1C(=O)OC1CC2(C1)CN(Cc1ccccc1)C2` [Compound 432, 2-benzyl-2-azaspiro[3.3]heptan-6-yl (2R,6R)-2,6-dimethyl-4-[6-(trifluoromethyl)-[1,3]thiazolo[4,5-b]pyridin-2-yl]piperazine-1-carboxylate], the Ki was in the range of 10 to 100 nM. Take `C[C@@H]1CN(c2ncc(C#N)cn2)C[C@H](C)N1C(=O)NC1CC2(C1)CN(Cc1ccc(Cl)cc1)C2` [Compound 251, (2R,6S)-N-{2-[(4-chlorophenyl)methyl]-2-azaspiro[3.3]heptan-6-yl}-4-(5-cyanopyrimidin-2-yl)-2,6-dimethylpiperazine-1-carboxamide]: the Ki was in the range of 10 to 100 nM.

Regarding `C[C@@H]1CN(c2cc(F)c(F)c(F)c2)CCN1C(=O)NC1CC2(C1)CN(Cc1ccccc1)C2` [Compound 44, (2R)-N-{2-benzyl-2-azaspiro[3.3]heptan-6-yl}-2-methyl-4-(3,4,5-trifluorophenyl)piperazine-1-carboxamide], the Ki is 10 to 100 nM. With `C[C@@H]1CN(c2ncc(OCC3CC3)cn2)C[C@H](C)N1C(=O)OC1CC2(C1)CN(Cc1ccccc1)C2` [Compound 499, 2-benzyl-2-azaspiro[3.3]heptan-6-yl (2R,6S)-4-[5-(cyclopropylmethoxy)pyrimidin-2-yl]-2,6-dimethylpiperazine-1-carboxylate] the figure was less than 10 nM.
